The values below come from patent US10940139B2, “Compounds that interact with the Ras superfamily for the treatment of cancers, inflammatory diseases, rasopathies, and fibrotic disease” (Shy Therapeutics LLC, priority 2017, dated 2021).

One assay deals with MAPK phosphorylation in PANC-1 pancreatic cancer cell line. Description: MAPK cell-based phosphorylation assay (cell-direct ELISA, EGF stimulation). The settings on record: Homo sapiens. The gist of the method: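 Cell-direct ELISA measured phospho-MAPK, with fluorescence read at 595 nm from AmpliFlu Red. Before fixation, PANC-1 cells starved overnight received 6 hours of compound (30 μM single dose or serial dilutions, 0.3% DMSO, 37° C), followed by 1.5 ng/ml EGF for 15 min.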
For orientation: In an ELISA, binding on a coated surface is turned into a signal by an enzyme label.
For orientation: IC50 means the concentration that gives 50% inhibition. Lower therefore signals greater potency in that assay. Consider `Cc1ccccc1N1CCN(C(=O)c2csc3c(O)nc(-c4ccccn4)nc23)CC1` [drawing 1123], for which the IC50 is greater than 30 µM.
Still for that read-out and setting: to `Oc1nc(-c2ccccn2)nc2c(-c3cccc(C(F)(F)F)c3)csc12` [drawing 1212] belongs less than 2 µM.
Take `Oc1nc(-c2ccccn2)nc2sccc12` [drawing 1081]: the concentration for half-maximal inhibition (IC50) fell in the range of 11 to 30 µM.
On the same count and under the same terms, to `Oc1nc(-c2ccccn2)nc2c(Br)csc12` [drawing 1064] belongs 2 to 10 µM.

The same assay, now with this note: Homo sapiens, * = tested at 10 μM.
For orientation: inhibition means the relative decrease from the control value, in per cent. Low values mean a weak effect, high ones a strong effect. For the compound `COCCN(C)c1nc(-c2nccn2C)nc2sc(-c3ccccc3)c(-c3ccccc3)c12` [drawing 1326], the inhibition at 10 µM is 76 to 100%.
Still for that read-out and setting: the figure for `Nc1nc(O)c2sc(-c3cccc(C(=O)NC4CCNC4=O)c3)cc2n1` (stereo not drawn) [drawing 1302] is 0%; for `Oc1nc(-c2ncccn2)nc2c(-c3cccc(C(F)(F)F)c3)csc12` [drawing 1368] it is 1 to 25%; for `Nc1cccc(-c2csc3c(O)nc(-c4ccccn4)nc23)n1` [drawing 1274] it is 51 to 75%.
Compound `Oc1nc(-c2ccccn2)nc2c(-c3cccc(C(F)(F)F)c3)csc12` [drawing 1212] had an inhibition at 10 µM of 76 to 100%.
The same measure, in the same setting: to `COCCNc1nc(-c2ccncn2)nc2sc(-c3ccccc3)c(-c3ccccc3)c12` [drawing 1334] belongs 1 to 25%; to `Cn1cnc(-c2nc(O)c3scc(-c4cccc(C(F)(F)F)c4)c3n2)c1` [drawing 1364], 1 to 25%; to `Oc1nc(-c2ccccn2)nc2cc(-c3ccc(-c4ccccc4)cc3)sc12` [drawing 1319], 25 to 50%.
Same read-out and setting: the figure for `Cc1sc2c(O)nc(-c3nccn3C)nc2c1-c1cccc(OC(F)(F)F)c1` is 25 to 50%; for `O=C(COCc1ccnc(O)c1)Nc1nc(-c2ccccn2)nc2sccc12` [drawing 1199] it is 1 to 25%.
Still for that read-out and setting: the figure for `Cc1c(C(=O)O)sc2c(O)nc(-c3ccccn3)nc12` [drawing 1249] is 25 to 50%.
Take `COc1ccc(-c2csc3c(O)nc(-c4ccccn4)nc23)c(C)c1` [drawing 1220]: the inhibition at 10 µM was in the range of 76 to 100%.
`CC(C)Oc1ccc(-c2c(-c3ccccc3)sc3c(O)nc(-c4nccn4C)nc23)cc1F` [drawing 1371] came in with an inhibition at 10 µM of 25 to 50%.
On to `Cn1ccnc1-c1nc(O)c2c(-c3ccccc3)c(-c3ccccc3)sc2n1` [drawing 1296], for which the inhibition at 10 µM stood at 0%.
With `COc1nc(-c2ccccn2)nc2c(C3CCCC3)csc12` [drawing 1244], the inhibition at 10 µM was 1 to 25%.
In the case of `Cc1sc2c(O)nc(-c3nccn3C)nc2c1-c1cccc(C(F)(F)F)c1` [drawing 1359], the inhibition at 10 µM lay in the range of 1 to 25%.
Same read-out and setting: the figure for `COCCNc1nc(-c2ccccn2)nc(-c2cccc(OCCN(C)C)c2)c1Oc1ccccc1` [drawing 1289] is 25 to 50%; for `Cc1c(Br)sc2c(O)nc(-c3ccccn3)nc12` [drawing 1248] it is 1 to 25%; for `COC(=O)c1nc(-c2ccccn2)nc(O)c1O` [drawing 1307] it is 0%.
For the compound `COCCNc1nc(-c2nccn2C)nc2sc(-c3cccc(OC)c3)c(-c3ccccc3)c12` [drawing 1346], the inhibition at 10 µM was 76 to 100%.
On the same count and under the same terms, the figure for `Oc1nc(-c2ccccn2)nc2c1c(-c1ccccc1)nn2-c1ccccn1` [drawing 1299] is 0%; for `COC(=O)c1csc2nc(-c3ccccn3)nc(N)c12` [drawing 1232] it is 25 to 50%; for `Oc1nc(-c2ccccn2)nc2c(C3CC3)csc12` [drawing 1278] it is 51 to 75%.
The compound `Oc1cccc(-c2csc3c(O)nc(-c4ccccn4)nc23)n1` [drawing 1259] had an inhibition at 10 µM of 51 to 75%.
As for `COCCNc1nc(-c2cn(C)cn2)nc2sc(-c3ccncc3)c(-c3ccccc3)c12` [drawing 1290], the inhibition at 10 µM amounted to 0%.
Still for that read-out and setting: to `Nc1nc(O)c2sc(-c3cccc(C(=O)NCc4cccc(O)n4)c3)cc2n1` [drawing 1306] belongs 0%; to `COc1ccnc(-c2nc(O)c3c(C(F)(F)F)csc3n2)c1` [drawing 1186], 1 to 25%.

Still in this assay, the particulars now being: Homo sapiens, at 30 μM.
Consider `COc1ccc2c(c1)CCC2C(=O)Nc1nc(-c2ccccn2)nc2sccc12` (stereo not drawn) [drawing 1177], for which the inhibition at 30 µM lay within 1 to 25%.
`Cc1ccccc1N1CCN(C(=O)c2csc3c(O)nc(-c4ccccn4)nc23)CC1` [drawing 1123] displayed an inhibition at 30 µM of 25 to 50%.
On the same count and under the same terms, the figure for `O=C(c1csc2c(O)nc(-c3ccccn3)nc12)N1CCN(Cc2ccc(O)cc2)CC1` [drawing 1146] is 25 to 50%; for `COC(=O)C(C)CN(Cc1cc(Br)ccc1[N+](=O)[O-])C1CC1` (stereo not drawn) [drawing 1054] it is 1 to 25%.
As for `COc1cnc(CN)[nH]c1=O` [drawing 1163], the inhibition at 30 µM is 1 to 25%.
On the same count and under the same terms, the figure for `CC(OCc1ccccc1)C(=O)Nc1nnc(-c2ccccn2)[nH]1` (stereo not drawn) [drawing 1016] is 1 to 25%.
Same read-out and setting: to `O=C(Nc1nnc(-c2ccccn2)[nH]1)c1ncoc1-c1cccs1` [drawing 1009] belongs 25 to 50%; to `COc1cc(CCN(C)C(=O)c2csc3nc(-c4ccccn4)nc(N4CCOCC4)c23)ccn1` [drawing 1155], 1 to 25%.
As to `CC(C)(C(=O)Nc1nc(-c2ccccn2)nc2sccc12)c1ccc(C#N)cc1` [drawing 1136], the inhibition at 30 µM is 1 to 25%.
Take `O=C(CN1CCN(c2nc(-c3ccccn3)nc3scc(-c4ccccc4)c23)CC1)N1CCCCC1` [drawing 1096]: the inhibition at 30 µM fell in the range of 25 to 50%.
Still for that read-out and setting: the figure for `Nc1nc(O)c2nc[nH]c2n1` [drawing 1112] is 1 to 25%; for `OC1CCCN(c2nc(-c3ccccn3)nc3scc(-c4ccccc4)c23)C1` (stereo not drawn) [drawing 1102] it is 51 to 75%; for `Oc1nc(-c2ccccn2)nc2sccc12` [drawing 1081] it is 1 to 25%.
The same measure, in the same setting: the figure for `N#Cc1cccc(N2CCN(C(=O)c3csc4c(O)nc(-c5ccccn5)nc34)CC2)c1` [drawing 1139] is 1 to 25%; for `O=C(c1csc2c(O)nc(-c3ccccn3)nc12)N1CCN(Cc2ccccc2)CC1` [drawing 1144] it is 1 to 25%.
In turn, `COC(=O)c1csc2c(O)nc(-c3ccccn3)nc12` [drawing 1182] yielded an inhibition at 30 µM of 25 to 50%.
`c1ccc(-c2csc3nc(-c4ccccn4)nc(N4CCN(CCN5CCCC5)CC4)c23)cc1` [drawing 1101] displayed an inhibition at 30 µM of 76 to 100%.
The same measure, in the same setting: the figure for `CCCOc1ccc2ccccc2c1CN(C)S(=O)(=O)N1CC(C)OC(C)C1` (stereo not drawn) [drawing 1051] is 1 to 25%.
On the same count and under the same terms, to `O=S1(=O)CCC(N2CCN(c3nc(-c4ccccn4)nc4scc(-c5ccccc5)c34)CC2)C1` (stereo not drawn) [drawing 1093] belongs 1 to 25%; to `CN(CCCc1n[nH]c(N)c1C#N)c1nc(-c2ccccn2)nc2sc(-c3ccccc3)cc12` [drawing 1090], 25 to 50%.
On the same count and under the same terms, to `Oc1nc(-c2ccccn2)nc2c(Br)csc12` [drawing 1064] belongs 76 to 100%; to `COc1ccc(CCC(=O)N2CCCc3c(O)nc(-c4ccccn4)nc32)cc1` [drawing 1058], 25 to 50%; to `COc1cccc(C2CN(C(=O)c3csc4c(O)nc(-c5ccccn5)nc34)CCN2)c1` (stereo not drawn) [drawing 1150], 1 to 25%.
Regarding `O=C(Nc1nnc(-c2ccccn2)[nH]1)C1CCCC(C(F)(F)F)C1` (stereo not drawn) [drawing 1017], the inhibition at 30 µM fell in the range of 51 to 75%.
Still for that read-out and setting: to `Nc1nc(O)c2scc(-c3ccccc3Cl)c2n1` [drawing 1073] belongs 1 to 25%.
Regarding `O=C(CCNC(=O)c1ccco1)Nc1nnc(-c2ccccn2)[nH]1` [drawing 1011], the inhibition at 30 µM fell in the range of 1 to 25%.
Same read-out and setting: the figure for `CN(CC(=O)N1CCOCC1)c1nc(-c2ccccn2)nc2scc(-c3ccccc3)c12` [drawing 1094] is 1 to 25%; for `O=C(CNc1nc(-c2ccccn2)nc2scc(-c3ccccc3)c12)NC1CC1` [drawing 1097] it is 25 to 50%.
For the compound `O=C(Nc1nnc(-c2ccccn2)[nH]1)C1CCn2c(cnc2-c2ccccc2)C1` (stereo not drawn) [drawing 997], the inhibition at 30 µM was 1 to 25%.
For the compound `O=c1nc(-c2ccccn2)[nH]c2c1sc1ccccc12` [drawing 1038], the inhibition at 30 µM was in the range of 76 to 100%.
On to `O=C(NCCc1ccc(O)nc1)c1csc2nc(-c3ccccn3)nc(N3CCOCC3)c12` [drawing 1168], for which the inhibition at 30 µM was in the range of 1 to 25%.
With `COCCC(C)Nc1nc(-c2ccccn2)nc2sccc12` (stereo not drawn) [drawing 1115], the inhibition at 30 µM is 25 to 50%.
The same measure, in the same setting: to `O=C(Nc1nnc(-c2ccccn2)[nH]1)C1CC(=O)N(Cc2cccc(C(F)(F)F)c2)C1` (stereo not drawn) [drawing 1024] belongs 25 to 50%; to `O=C(Cn1cnc2ccccc2c1=O)Nc1nc(-c2ccccn2)cs1` [drawing 1030], 1 to 25%; to `O=C(CC1C=CCC1)Nc1nnc(-c2ccccn2)[nH]1` (stereo not drawn) [drawing 1005], 1 to 25%.
The same measure, in the same setting: to `O=C(c1csc2c(O)nc(-c3ccccn3)nc12)N1CCN(c2ccncc2)CC1` [drawing 1069] belongs 25 to 50%.
The same measure, in the same setting: to `O=C(c1csc2c(O)nc(-c3ccccn3)nc12)N1CCNC(Cc2ccccc2)C1` (stereo not drawn) [drawing 1154] belongs 1 to 25%; to `O=S(=O)(CCc1ccccc1)N1CCCc2c(O)nc(-c3ccccn3)nc21` [drawing 1060], 25 to 50%.
For the compound `O=C1CCN(c2nc(-c3ccccn3)nc3scc(-c4ccccc4)c23)CC1` [drawing 1110], the inhibition at 30 µM lay in the range of 25 to 50%.
On the same count and under the same terms, to `COc1cc(COCC(=O)Nc2ccnc(-c3ccccn3)n2)ccn1` [drawing 1172] belongs 25 to 50%.
As for `Oc1ccc(C2(c3cccc(Cl)c3)CCCC2)cc1` [drawing 1047], the inhibition at 30 µM was in the range of 76 to 100%.
